Test results as given in ChEMBL document CHEMBL3217718, “Synthesis, radical scavenging activity and structureactivity relationship of uric acid analogs” (Medchemcomm, 2013).
≈ marks a conversion by molar mass, not a printed value. Calls of active or inactive are those of the source. The calls are words filed in the database; no cut-off is given here.

What was measured:
[1] = test system: Radical scavenging activity; experiment: Antioxidant activity assessed as DPPH radical scavenging rate constant measured for 60 secs by spectrophotometric analysis; format: functional
[2] = test system: Radical scavenging activity; experiment: Antioxidant activity assessed as DPPH radical scavenging activity at 500 uM measured for 60 secs by spectrophotometric analysis; format: functional
[3] = Solubility of the compound in PBS buffer at pH 7.4 at 37 degC; format: physicochemical
HL-60 = experiment: Cytotoxicity against human HL60 cells assessed as cell viability up to 120 uM after 24 hrs by trypan blue assay; format: cell-based; conditions: hl-60, 24 h
[4] = Solubility of the compound in serum at pH 7.4; format: ADME

Row | SMILES | Activity [1] [×10³ /M/s] | Activity [2] | also measured
1 | O=C1Cc2ccc(O)cc2N1 | 0.93 | – | –
2 | COc1ccc2[nH]c(=O)[nH]c2c1 | – | inactive | –
3 | Oc1cccc2c1CCN2 | 0.21 | – | –
4 | O=c1[nH]c(=O)c2[nH]c(=O)[nH]c2[nH]1 [URIC ACID] | – | – | solubility [3]: 0.053 mg/mL (≈ 315 µM); Activity (HL-60): Non-toxic
5 | O=c1[nH]c2ccc(O)cc2o1 | 8.7 | – | –
6 | [Na+].[O-]c1nc2c(O)nc(O)nc2[nH]1 | 0.7 | – | solubility [4]: 0.07 mg/mL
7 | Oc1ccc2[nH]ccc2c1 | 2.6 | – | –
8 | O=c1[nH]c2ccc(O)cc2[nH]1 | 110 | – | solubility [3]: 0.065 mg/mL (≈ 433 µM); Activity (HL-60): Non-toxic
9 | c1ccc2[nH]cnc2c1 | – | inactive | –
10 | O=C1Cc2cccc(O)c2N1 | 0.12 | – | –
11 | Oc1ccc(O)cc1 [HYDROQUINONE] | 4.4 | – | Activity (HL-60): Toxic
12 | O=C1Cc2cc(O)ccc2N1 | 11 | – | solubility [3]: 0.225 mg/mL (≈ 1510 µM); Activity (HL-60): Non-toxic
13 | COc1ccc2[nH]c(=O)[nH]c2n1 | – | inactive | –
14 | Oc1ccc2c(c1)CCC2 | – | inactive | –
15 | Nc1ccc(O)cc1 [4-AMINOPHENOL] | 310 | – | Activity (HL-60): Toxic
16 | Oc1ccc2cc[nH]c2c1 | 11 | – | –
17 | CC1=NN(c2ccccc2)C(=O)C1 | 72 | – | –
18 | O=c1[nH]c2ccccc2[nH]1 | – | inactive | –
19 | O=c1[nH]c2cccc(O)c2[nH]1 | 0.37 | – | –
20 | O=C1Cc2ccccc2C1 | – | inactive | –
21 | O=C1Cc2ccccc2N1 | – | inactive | –
22 | O=c1[nH]c2ccc(O)nc2[nH]1 | 71 | – | solubility [3]: 0.082 mg/mL (≈ 543 µM); Activity (HL-60): Non-toxic
